Consider two compounds from patent publication US6489098B1, “Means and methods for monitoring nucleoside reverse transcriptase inhibitor antiretroviral therapy and guiding therapeutic decisions in the treatment of HIV/AIDS” (ViroLogic, Inc., priority 1998, dated 2002).

“And” between values parts separate entries of the source, which are not always exact repeats. Equal values may be shown once. “Also recorded” adds a separate entry of the source.

Test [1] has as its system HIV isolates of 13 ZDV-naive patients. To be noted: 13 ZDV-naive patients followed for 18 to 22 months on d4T; d4T maximum; ZDV five patients; ddI three subjects; cited from earlier work.
The test system of test [2] is patient RTV-757, RTV-844, RTV-937, RTV-964 and RTV-966 (4 or more AZT resistance mutations). Put plainly: Phenotypic susceptibility assay, patient isolates with AZT resistance-associated mutations. In kind it is cell-based, HIV-1. The procedure: In these experiments patient-derived segment(s) corresponding to the HIV protease and reverse transcriptase coding regions were either patient-derived segments amplified by the reverse transcription-polymerase chain reaction method (RT-PCR) using viral RNA isolated from viral particles present in the serum of HIV-infected individuals or were mutants of wild type HIV-1 made by site directed mutagenesis of a parental clone of resistance test vector DNA. Isolation of viral RNA was performed using standard procedures (e.g. RNAgents Total RNA Isolation System, Promega, Madison Wis. or RNAzol, Tel-Test, Friendswood, Tex.). The RT-PCR protocol was divided into two steps. A retroviral reverse transcriptase [e.g. Moloney MuLV reverse transcriptase (Roche Molecular Systems, Inc., Branchburg, N.J.), or avian myeloblastosis virus (AMV) reverse transcriptase, (Boehringer Mannheim, Indianapolis, Ind.)] was used to copy viral RNA into cDNA. […]
Resistance tests were carried out with resistance test vectors using two host cell types. […] The resistance test vector viral particles were then used to infect a second host cell (the target host cell) in which the expression of the indicator gene is measured. […]

Test [3] relates to RTV clone 285-1 (T69SSA) versus revertant 285-1 (SSA69T). In words: Phenotypic susceptibility assay, patient 285 clone and T69SSA revertant. In kind it is cell-based, HIV-1. To be noted: T69SSA→SSA69T in a clone of a patient's virus.
For test [4], the system named is HIV-1 RT mutant resistance test vector M41L-A62V-T69SSA-T215Y-L210W-RTV. Put plainly: Phenotypic susceptibility assay, site directed RTV M41L+A62V+T69SSA+L210W+T215Y. Type of test: cell-based. To be noted: RTV with 41 + 62 + 69 + 210 + 215; 3 replicates. As to the method:
Resistance tests were carried out with resistance test vectors using two host cell types. Resistance test vector viral particles were produced by a first host cell (the resistance test vector host cell) that was prepared by transfecting a packaging host cell with the resistance test vector and the packaging expression vector. The resistance test vector viral particles were then used to infect a second host cell (the target host cell) in which the expression of the indicator gene is measured.
The resistance test vectors containing a functional luciferase gene cassette were constructed and host cells were transfected with the resistance test vector DNA. The resistant test vectors contained patient-derived reverse transcriptase and protease sequences that were either susceptible or resistant to the antiretroviral agents, such as nucleoside reverse transcriptase inhibitors, non-nucleoside reverse transcriptase inhibitors and protease inhibitors. The resistance test vector viral particles produced by transfecting the resistance test vector DNA into host cells, either in the presence or absence of protease inhibitors, were used to infect target host cells grown either in the absence of NRTI or NNRTI or In the presence of increasing concentrations of the drug. The amount of luciferase activIty produced in infected target host cells in the presence of drug was compared to the amount of luciferase produced in infected target host cells in the absence of drug. […] The IC50 values were determined by plotting percent drug inhibition vs. log 10 drug concentration.
Host cells were seeded in 10-cm-diameter dishes and were transfected several days after plating with resistance test vector plasmid DNA and the envelope expression vector. […] HIV capsid protein (p24) levels in the harvested cell culture media were determined by an EIA method as described by the manufacturer (SIAC; Frederick, Md.). […] The inhibitory effect of the drug was determined using the following equation: […]

On to `Cc1cn([C@H]2C=C[C@@H](CO)O2)c(=O)[nH]c1=O` [d4T, stavudine], for which, in test [1], the “fold decrease in sensitivity” value is at most 12 fold. The fold reduced susceptibility in test [2] (four patient viruses with 4 or more AZT resistance mutations (FIG. 6)) is 3-6 fold. In test [2] (patient RTV pools with multiple AZT-resistance mutations), the “susceptibility compared to wild-type control RTV” value is given as “decrease in susceptibility to d4T; also recorded: significant decreases in susceptibility to d4T”. In addition, in test [3], the “effect of reversion of the T69SSA mutation” value was “reduced d4T resistance”.
For the compound `Nc1ccn([C@H]2CC[C@@H](CO)O2)c(=O)n1` [ddC, zalcitabine], the “Average fold reduction in susceptibility” value in test [4] was 2.1 fold and 2.10 fold.
